Numbers after ± are expanded uncertainties.
Assay: xn = mol fraction of the nth substance listed
Settings: Liquid, Vibrating tube method, x1 = 0.4891

Cc1cccc(O)c1 [3-methylphenol] + Cc1ccccc1O
Settings | mass density [kg/m3]
313.19 K, 103.35 kPa | 1023.8 ± 0.5
313.19 K, 206.8 kPa | 1024.3 ± 0.5
313.19 K, 308.94 kPa | 1024.9 ± 0.5
313.19 K, 406.72 kPa | 1025.5 ± 0.5
313.19 K, 509.16 kPa | 1026 ± 0.5
313.19 K, 609.17 kPa | 1026.6 ± 0.5
313.19 K, 710.69 kPa | 1027.1 ± 0.5
313.19 K, 813.34 kPa | 1027.7 ± 0.5
313.19 K, 912.33 kPa | 1028.3 ± 0.5
313.19 K, 1014.1 kPa | 1028.8 ± 0.5
313.19 K, 1115.4 kPa | 1029.3 ± 0.5
313.19 K, 1219.9 kPa | 1029.9 ± 0.5
313.19 K, 1317.7 kPa | 1030.4 ± 0.5
313.19 K, 1421.7 kPa | 1031 ± 0.5
313.19 K, 1522.3 kPa | 1031.5 ± 0.5
313.19 K, 1625.4 kPa | 1032.1 ± 0.5
313.19 K, 1723.2 kPa | 1032.6 ± 0.5
313.19 K, 1824.4 kPa | 1033.1 ± 0.5
313.19 K, 1926.4 kPa | 1033.6 ± 0.5
313.19 K, 2026.8 kPa | 1034.1 ± 0.5
313.19 K, 2129.3 kPa | 1034.7 ± 0.5
313.19 K, 2229.4 kPa | 1035.2 ± 0.5
313.19 K, 2333 kPa | 1035.7 ± 0.5
313.19 K, 2433.2 kPa | 1036.2 ± 0.5
313.19 K, 2532.9 kPa | 1036.7 ± 0.5
323.14 K, 101.12 kPa | 1015.4 ± 0.5
323.14 K, 206.5 kPa | 1016 ± 0.5
323.14 K, 310.87 kPa | 1016.6 ± 0.5
323.14 K, 408.14 kPa | 1017.1 ± 0.5
323.14 K, 510.78 kPa | 1017.8 ± 0.5
323.14 K, 609.67 kPa | 1018.3 ± 0.5
323.14 K, 712.01 kPa | 1018.9 ± 0.5
323.14 K, 812.42 kPa | 1019.5 ± 0.5
323.14 K, 916.79 kPa | 1020.1 ± 0.5
323.14 K, 1012.2 kPa | 1020.6 ± 0.5
323.14 K, 1115.9 kPa | 1021.2 ± 0.5
323.14 K, 1217.9 kPa | 1021.8 ± 0.5
323.14 K, 1321.1 kPa | 1022.4 ± 0.5
323.14 K, 1420.2 kPa | 1022.9 ± 0.5
323.14 K, 1520.1 kPa | 1023.5 ± 0.5
323.14 K, 1622.5 kPa | 1024 ± 0.5
323.14 K, 1723.3 kPa | 1024.6 ± 0.5
323.14 K, 1823.7 kPa | 1025.1 ± 0.5
323.14 K, 1926.1 kPa | 1025.6 ± 0.5
323.14 K, 2028 kPa | 1026.2 ± 0.5
323.14 K, 2128.7 kPa | 1026.7 ± 0.5
323.14 K, 2232.2 kPa | 1027.3 ± 0.5
323.14 K, 2331 kPa | 1027.8 ± 0.5
323.14 K, 2434.8 kPa | 1028.4 ± 0.5
323.14 K, 2533.2 kPa | 1028.9 ± 0.5
333.08 K, 104.06 kPa | 1007 ± 0.5
333.08 K, 209.13 kPa | 1007.6 ± 0.5
333.08 K, 305.29 kPa | 1008.2 ± 0.5
333.08 K, 408.54 kPa | 1008.8 ± 0.5
333.08 K, 507.94 kPa | 1009.4 ± 0.5
333.08 K, 610.79 kPa | 1010.1 ± 0.5
333.08 K, 708.67 kPa | 1010.6 ± 0.5
333.08 K, 812.42 kPa | 1011.3 ± 0.5
333.08 K, 913.04 kPa | 1011.9 ± 0.5
333.08 K, 1015.7 kPa | 1012.5 ± 0.5
333.08 K, 1115.2 kPa | 1013 ± 0.5
333.08 K, 1217.7 kPa | 1013.7 ± 0.5
333.08 K, 1318 kPa | 1014.2 ± 0.5
333.08 K, 1419 kPa | 1014.8 ± 0.5
333.08 K, 1520.9 kPa | 1015.4 ± 0.5
333.08 K, 1624.9 kPa | 1016 ± 0.5
333.08 K, 1724.2 kPa | 1016.6 ± 0.5
333.08 K, 1824.2 kPa | 1017.1 ± 0.5
333.08 K, 1925.9 kPa | 1017.7 ± 0.5
333.08 K, 2031 kPa | 1018.3 ± 0.5
333.08 K, 2132.9 kPa | 1018.9 ± 0.5
333.08 K, 2232.5 kPa | 1019.4 ± 0.5
333.08 K, 2336 kPa | 1020 ± 0.5
333.08 K, 2438 kPa | 1020.6 ± 0.5
333.08 K, 2536.6 kPa | 1021.1 ± 0.5
343.04 K, 103.66 kPa | 998.4 ± 0.5
343.04 K, 208.53 kPa | 999 ± 0.5
343.04 K, 305.8 kPa | 999.7 ± 0.5
343.04 K, 406.72 kPa | 1000.3 ± 0.5
343.04 K, 510.78 kPa | 1001 ± 0.5
343.04 K, 609.67 kPa | 1001.6 ± 0.5
343.04 K, 711.4 kPa | 1002.3 ± 0.5
343.04 K, 812.12 kPa | 1002.9 ± 0.5
343.04 K, 912.13 kPa | 1003.5 ± 0.5
343.04 K, 1014 kPa | 1004.1 ± 0.5
343.04 K, 1115.1 kPa | 1004.8 ± 0.5
343.04 K, 1220.8 kPa | 1005.4 ± 0.5
343.04 K, 1318.1 kPa | 1006 ± 0.5
343.04 K, 1420.7 kPa | 1006.6 ± 0.5
343.04 K, 1520.6 kPa | 1007.2 ± 0.5
343.04 K, 1621 kPa | 1007.9 ± 0.5
343.04 K, 1722.2 kPa | 1008.4 ± 0.5
343.04 K, 1824.6 kPa | 1009.1 ± 0.5
343.04 K, 1925.9 kPa | 1009.7 ± 0.5
343.04 K, 2028.3 kPa | 1010.2 ± 0.5
343.04 K, 2130 kPa | 1010.8 ± 0.5
343.04 K, 2233.9 kPa | 1011.4 ± 0.5
343.04 K, 2330.6 kPa | 1011.9 ± 0.5
343.04 K, 2432 kPa | 1012.5 ± 0.5
343.04 K, 2536.8 kPa | 1013.1 ± 0.5
352.98 K, 105.78 kPa | 990 ± 0.5
352.98 K, 204.88 kPa | 990.6 ± 0.5
352.98 K, 305.29 kPa | 991.3 ± 0.5
352.98 K, 408.64 kPa | 992 ± 0.5
352.98 K, 509.16 kPa | 992.6 ± 0.5
352.98 K, 610.18 kPa | 993.3 ± 0.5
352.98 K, 707.96 kPa | 993.9 ± 0.5
352.98 K, 810.8 kPa | 994.7 ± 0.5
352.98 K, 913.45 kPa | 995.3 ± 0.5
352.98 K, 1013.5 kPa | 996 ± 0.5
352.98 K, 1116.7 kPa | 996.6 ± 0.5
352.98 K, 1217.9 kPa | 997.2 ± 0.5
352.98 K, 1316.1 kPa | 997.9 ± 0.5
352.98 K, 1418 kPa | 998.5 ± 0.5
352.98 K, 1519.3 kPa | 999.1 ± 0.5
352.98 K, 1623.4 kPa | 999.8 ± 0.5
352.98 K, 1723.3 kPa | 1000.4 ± 0.5
352.98 K, 1821.8 kPa | 1001 ± 0.5
352.98 K, 1928 kPa | 1001.7 ± 0.5
352.98 K, 2027.3 kPa | 1002.3 ± 0.5
352.98 K, 2129.3 kPa | 1002.9 ± 0.5
352.98 K, 2237.1 kPa | 1003.5 ± 0.5
352.98 K, 2331.9 kPa | 1004.2 ± 0.5
352.98 K, 2437.8 kPa | 1004.8 ± 0.5
352.98 K, 2536.4 kPa | 1005.4 ± 0.5
362.91 K, 106.69 kPa | 981.5 ± 0.5
362.91 K, 203.97 kPa | 982.2 ± 0.5
362.91 K, 305.9 kPa | 982.9 ± 0.5
362.91 K, 407.53 kPa | 983.6 ± 0.5
362.91 K, 510.78 kPa | 984.3 ± 0.5
362.91 K, 608.36 kPa | 985 ± 0.5
362.91 K, 708.57 kPa | 985.7 ± 0.5
362.91 K, 811.21 kPa | 986.3 ± 0.5
362.91 K, 912.33 kPa | 987 ± 0.5
362.91 K, 1013.1 kPa | 987.7 ± 0.5
362.91 K, 1114.2 kPa | 988.3 ± 0.5
362.91 K, 1215.1 kPa | 989 ± 0.5
362.91 K, 1318.3 kPa | 989.7 ± 0.5
362.91 K, 1418.7 kPa | 990.3 ± 0.5
362.91 K, 1520.8 kPa | 991 ± 0.5
362.91 K, 1622.2 kPa | 991.7 ± 0.5
362.91 K, 1723.8 kPa | 992.3 ± 0.5
362.91 K, 1825.8 kPa | 993 ± 0.5
362.91 K, 1926.1 kPa | 993.6 ± 0.5
362.91 K, 2030.7 kPa | 994.3 ± 0.5
362.91 K, 2128.7 kPa | 994.9 ± 0.5
362.91 K, 2230.1 kPa | 995.5 ± 0.5
362.91 K, 2332.4 kPa | 996.2 ± 0.5
362.91 K, 2434.6 kPa | 996.8 ± 0.5
362.91 K, 2536.1 kPa | 997.5 ± 0.5
